How the values were obtained:
[1] = tested on: bone marrow polychromatic erythrocytes; assay: In vivo micronucleus study in mice; details: male ICR mice, oral twice at 24 hour interval, bone marrow 24 hours after final administration, highest dose group with all animals alive
Method: (§1) The compounds of Examples 2, 4 and 12 were used as test compounds.
A test compound suspended in 0.5% methylcellulose was orally administered to male ICR mice (8 week-old, three animals in a group) twice at a 24 hour interval. To a control group, 0.5% methylcellulose was orally administered in a similar manner.
At 24 hours after the final administration, the mice in the highest dose group in which all the animals were alive were killed by exsanguination under ether anesthesia, and one thigh bone was collected from each animal. After cutting the collected thigh bone at the proximal end, bone marrow cells were washed out with fetal calf serum to a centrifuge tube using a disposable syringe, and after centrifugation (1000 rpm, 5 minutes, HITACHI 05PR-22), a part of the supernatant was discarded to obtain a suspension of bone marrow cells. This suspension was smeared on a slide glass, and then dried followed by methanol fixation to prepare a sample.
The sample was observed by acridine orange staining.
The sample of which frequency of MNPCE exceeds 0.5% was judged positive.
Frequency of MNPCE (%)=(MNPCE number/Observed PCE number)×100

[2] = Single-dose oral toxicity study in mice; assay type: in vivo; details: male ICR mice, suspension in 0.5% methylcellulose, conditions observed on the next day
Method: as §1
10 mL/kg of a test compound suspended in 0.5% methylcellulose was orally administered to male ICR mice (6 week-old, one animal in a group).
On the next day after the administration, the conditions of the mice were observed.

[3] = Pharmacokinetic study in mice (oral administration); assay type: in vivo; details: mouse, serum, 25 mg/kg, male ICR mice, suspension in 0.5% methylcellulose 2.5 mg/mL at 10 mL/kg, 12 hours after administration, HPLC, read-out: serum concentration of the test compound
Method: The compounds of Examples 2, 4, 5, 12 and 16 were used as test compounds.
A test compound suspended in 0.5% methylcellulose (2.5 mg/mL) was orally administered at 10 mL/kg to male ICR mice (6 week-old, three animals in a group). At 12 hours after the administration, the blood of the mice was collected, and the concentrations of the test compound in the serum were measured by HPLC.

HIV-1 (JRCSF) = assay: Anti-HIV activity (Test Example 1-2): infected MaRBLE cells seeded on plate containing drug solution, luciferase readout after 7 days; assay type: cell-based; details: Human immunodeficiency virus 1, 168 h, MaRBLE cells infected with HIV-1 (JRCSF), 7 days culture, firefly luciferase, FORECAST linear regression (Excel)
Method: This example was carried out by reference to Journal of Clinical Microbiology, 2007, Vol. 45, pages 477 to 487.
An anti-HIV activity was evaluated using MaRBLE cells obtained by transfection of HPB-M(a) derived from human T-lymphocytes with a luciferase gene of which expressions were regulated by HIV-1 LTR and a CCR5 gene etc.
A plate containing a drug solution was made by dispensing a fresh culture medium or an appropriately diluted test compound to a 96-well plate.
MaRBLE cells were suspended in RPMI1640 containing 10% FCS (fetal calf serum) and penicillin/streptomycin. After infected with HIV-1 (JRCSF), the cells were seeded on the above-described plate containing a drug solution ([…] cells/well). As a control group, the same number of uninfected cells were seeded.
After culturing at 37° C. under 5% CO2 for 7 days, an intracellular luciferase activity was measured using Dual-Glo Luciferase assay system (Promega).
The virus growth rate was calculated by the following equation.
Virus growth rate (%)=(A/B)×100
A=(Firefly luciferase activity in the well with the compound)−(Firefly luciferase activity of uninfected cells)
B=(Firefly luciferase activity in the well without the compound)−(Firefly luciferase activity of uninfected cells)
The IC50 of the compound was calculated by plotting the concentration with the logarithm and by plotting the virus growth rate with a real number, using the FORECAST function (linear regression technique) of Microsoft Office Excel 2003.

With Cc1noc(C)c1-c1ccc2c(=O)cc(C)n(-c3cc(N)c(F)c(F)c3F)c2n1 [Example 12, 1-(5-amino-2,3,4-trifluorophenyl)-7-(3,5-dimethylisoxazol-4-yl)-2-methyl-1,4-dihydro-4-oxo-1,8-naphthyridine] the “micronucleus test result (frequency of MNPCE exceeding 0.5% judged positive)” value [1] was “negative”, the “dose at which the compound showed good safety (single oral dose)” value [2] was 1000 mg/kg and the concentration at 12 h [3] was no less than 500 ng/mL. For the same compound, the IC50 (HIV-1 (JRCSF)) was 1.9 nM.

Reference: patent publication US20130005760A1, “HETEROCYCLIC COMPOUND HAVING AZOLE GROUP” (Toyama Chemical Co., Ltd., priority 2010, published 2013)
